Structures can show the parent of a compound that is named as a salt.
Biological target: T1, Proton Pump (H^+,K^+-ATPase) (Sus scrofa, UniProt P19156)
T1 construct: gastric vesicles were isolated from porcine stomachs; from tissue; host or cells: porcine stomach (gastric vesicles)
Experiment: Inhibitory activity on proton pump (H+,K+-ATPase) activity, porcine gastric vesicles, malachite green readout
Format: biochemical
Conditions: porcine gastric vesicles, pH 6.5, 8 mM KCl, 0.2 mM ATP
Procedure: Specifically, gastric vesicles were isolated from porcine stomachs, and the protein content of the vesicles was quantified using a BSA kit (Bio-Rad, 5000205). All reactions were performed in 96-well plates with a reaction volume of […] containing 100 ng of vesicles. 10 mM valinomycin and the test compound were added to reaction buffer (50 mM Tris-HEPES, 5 mM MgCl2, 8 mM KCl, pH 6.5) containing porcine gastric vesicles at various concentrations, and the mixture was incubated at 37°C for 30 minutes. DMSO or test compounds at different concentrations were added after diluting them to a final DMSO concentration of 0.1%. 0.2 mM adenosine triphosphate (ATP) was then added to the reaction buffer and incubated at 37°C for 20 minutes. The reaction was stopped with 0.2% Tween 20, followed by the addition of malachite green (Sigma Aldrich, MAK307) and incubation at room temperature for 30 minutes. The optical density (OD) value was measured at 620 nm using a microplate reader (Spectramax M5e, Molecular devices). The percent (%) inhibition was derived from the OD values of the control group and various concentrations of the test compounds. The IC50 of the test compounds was analyzed using nonlinear regression using the GraphPad Prism8 program using the % inhibition value at each concentration.

T1 sequence (P19156 2-1034 limits assumed): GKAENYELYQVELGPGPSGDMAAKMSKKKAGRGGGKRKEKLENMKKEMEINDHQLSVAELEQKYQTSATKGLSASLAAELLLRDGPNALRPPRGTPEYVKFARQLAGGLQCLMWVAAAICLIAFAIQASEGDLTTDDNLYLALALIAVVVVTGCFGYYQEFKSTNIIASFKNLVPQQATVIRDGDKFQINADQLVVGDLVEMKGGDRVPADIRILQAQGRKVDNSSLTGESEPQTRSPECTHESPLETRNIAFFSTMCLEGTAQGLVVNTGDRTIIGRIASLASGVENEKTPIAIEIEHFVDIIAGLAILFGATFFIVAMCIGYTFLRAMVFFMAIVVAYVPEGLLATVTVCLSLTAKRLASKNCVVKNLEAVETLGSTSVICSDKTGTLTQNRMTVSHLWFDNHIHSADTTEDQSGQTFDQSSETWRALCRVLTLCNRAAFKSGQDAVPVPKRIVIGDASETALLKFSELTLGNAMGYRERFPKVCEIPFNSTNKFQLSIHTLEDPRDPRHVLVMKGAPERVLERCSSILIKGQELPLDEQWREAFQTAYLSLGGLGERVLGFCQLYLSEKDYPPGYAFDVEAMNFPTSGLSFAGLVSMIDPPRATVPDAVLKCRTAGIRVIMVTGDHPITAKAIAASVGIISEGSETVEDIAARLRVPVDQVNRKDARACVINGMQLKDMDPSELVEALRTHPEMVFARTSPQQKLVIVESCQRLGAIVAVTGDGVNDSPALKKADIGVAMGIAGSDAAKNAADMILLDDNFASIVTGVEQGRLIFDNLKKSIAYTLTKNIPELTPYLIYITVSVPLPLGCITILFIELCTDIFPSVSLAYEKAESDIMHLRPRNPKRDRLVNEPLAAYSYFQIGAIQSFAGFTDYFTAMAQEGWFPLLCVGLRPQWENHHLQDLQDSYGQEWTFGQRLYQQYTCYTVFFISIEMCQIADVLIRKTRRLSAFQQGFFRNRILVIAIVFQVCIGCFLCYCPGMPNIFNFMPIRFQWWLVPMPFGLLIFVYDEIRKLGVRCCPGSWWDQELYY
T1 sequence (P18434 whole entry partner): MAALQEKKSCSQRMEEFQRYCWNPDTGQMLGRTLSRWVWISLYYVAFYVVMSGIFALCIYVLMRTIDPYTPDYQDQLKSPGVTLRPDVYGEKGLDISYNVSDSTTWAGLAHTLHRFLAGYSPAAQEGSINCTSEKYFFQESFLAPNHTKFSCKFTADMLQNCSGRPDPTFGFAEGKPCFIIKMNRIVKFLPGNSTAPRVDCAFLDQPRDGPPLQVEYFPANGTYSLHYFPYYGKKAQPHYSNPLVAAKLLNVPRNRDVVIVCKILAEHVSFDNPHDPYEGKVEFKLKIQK

| SMILES | IC50 [nM] |
| --- | --- |
| Cc1cccc(C)c1CNc1cc(NC(=O)C23CC(C2)C3)cn2c(C)c(C)nc12 [Example 12, N-(8-((2,6-dimethylbenzyl)amino)-2,3-dimethylimidazo[1,2-a]pyridin-6-yl)bicyclo[1.1.1]pentane-1-carboxamide] | 100 to 500 |
| Cc1cccc(C)c1CNc1cc(NC(=O)[C@H]2CCCNC2)cn2c(C)c(C)nc12 [Example 118, (S)-N-(8-((2,6-dimethylbenzyl)amino)-2,3-dimethylimidazo[1,2-a]pyridin-6-yl)piperidine-3-carboxamide hydrochloride] | 100 to 500 |
| Cc1cccc(C)c1CNc1cc(NC(=O)NC23CC(C2)C3)cn2c(C)c(C)nc12 [Example 29, 1-(bicyclo[1.1.1]pentan-1-yl)-3-(8-((2,6-dimethylbenzyl)amino)-2,3-dimethylimidazo[1,2-a]pyridin-6-yl)urea hydrochloride] | > 500 |
| Cc1cccc(C)c1CNc1cc(NC(=O)N2CCNCC2)cn2c(C)c(C)nc12 [Example 103, N-(8-((2,6-dimethylbenzyl)amino)-2,3-dimethylimidazo[1,2-a]pyridin-6-yl)piperazine-1-carboxamide hydrochloride] | 100 to 500 |
| Cc1cccc(C)c1CNc1cc(NC(=O)[C@H]2CCNC2)cn2c(C)c(C)nc12 [Example 105, (S)-N-(8-((2,6-dimethylbenzyl)amino)-2,3-dimethylimidazo[1,2-a]pyridin-6-yl)pyrrolidine-3-carboxamide hydrochloride] | 100 to 500 |
| Cc1cccc(C)c1CNc1cc(NC(=O)[C@H]2CCN(C(=O)CO)C2)cn2c(C)c(C)nc12 [Example 110, (S)-N-(8-((2,6-dimethylbenzyl)amino)-2,3-dimethylimidazo[1,2-a]pyridin-6-yl)-1-(2-hydroxyacetyl)pyrrolidine-3-carboxamide citrate] | 100 to 500 |
| Cc1cccc(C)c1CNc1cc(NC(=O)NCCC(=O)O)cn2c(C)c(C)nc12 [Example 71, 3-(3-(8-((2,6-dimethylbenzyl)amino)-2,3-dimethylimidazo[1,2-a]pyridin-6-yl)ureido)propionic acid citrate] | 100 to 500 |
| CCCNC(=O)Nc1cc(NCc2c(C)cccc2C)c2nc(C)c(C)n2c1 [Example 54] | 100 to 500 |
| Cc1cccc(C)c1CNc1cc(NC(=O)[C@H]2CCCN(C(=O)CO)C2)cn2c(C)c(C)nc12 [Example 120, (S)-N-(8-((2,6-dimethylbenzyl)amino)-2,3-dimethylimidazo[1,2-a]pyridin-6-yl)-1-(2-hydroxyacetyl)piperidine-3-carboxamide] | 100 to 500 |
| Cc1cccc(C)c1CNc1cc(NC(=O)CCOCCC(=O)OC(C)(C)C)cn2c(C)c(C)nc12 [Example 41] | > 500 |
| Cc1cccc(C)c1CNc1cc(NC(=O)N[C@H]2CCc3ccccc32)cn2c(C)c(C)nc12 [Example 78, (S)-1-(2,3-dihydro-1H-inden-1-yl)-3-(8-((2,6-dimethylbenzyl)amino)-2,3-dimethylimidazo[1,2-a]pyridin-6-yl)urea hydrochloride] | 100 to 500 |
| Cc1cccc(C)c1CNc1cc(NC(=O)C(F)F)cn2c(C)c(C)nc12 [Example 9, N-(8-((2,6-dimethylbenzyl)amino)-2,3-dimethylimidazo [1,2-a]pyridin-6-yl)-2,2-difluoroacetamide] | > 500 |
| Cc1cccc(C)c1CNc1cc(NC(=O)C2CC2)cn2c(C)c(C)nc12 [Example 2, N-(8-((2,6-dimethylbenzyl)amino)-2,3-dimethylimidazo[1,2-a]pyridin-6-yl)cyclopropanecarboxamide] | 100 to 500 |
| CCOC(=O)CC(=O)Nc1cc(NCc2c(C)cccc2C)c2nc(C)c(C)n2c1 [Example 34, ethyl 3-((8-((2,6-dimethylbenzyl)amino)-2,3-dimethylimidazo[1,2-a]pyridin-6-yl)amino)-3-oxopropanoate] | > 500 |
| Cc1cccc(C)c1CNc1cc(NC(=O)[C@@H]2CCCCN2)cn2c(C)c(C)nc12 [Example 106, (S)-N-(8-((2,6-dimethylbenzyl)amino)-2,3-dimethylimidazo[1,2-a]pyridin-6-yl)piperidine-2-carboxamide hydrochloride] | 100 to 500 |

The remaining lines, values ahead:

| IC50 [nM] | SMILES |
| --- | --- |
| 50 to 100 | Cc1cccc(C)c1CNc1cc(N)cn2c(C)c(C)nc12 [Preliminary Example 1, N^8-(2,6-dimethylbenzyl)-2,3-dimethylimidazo[1,2-a]pyridine-6,8-diamine] |
| < 50 | Cc1cc(F)cc(C)c1CNc1cc(NC(=O)[C@@H](C)O)cn2c(C)c(C)nc12 [Example 117, (R)-N-(8-((4-fluoro-2,6-dimethylbenzyl)amino)-2,3-dimethylimidazo[1,2-a]pyridin-6-yl)-2-hydroxypropanamide] |
| 100 to 500 | Cc1cccc(C)c1CNc1cc(NC(=O)CN(C)C)cn2c(C)c(C)nc12 [Example 53, 2-(dimethylamino)-N-(8-((2,6-dimethylbenzyl)amino)-2,3-dimethylimidazo[1,2-a]pyridin-6-yl)acetamide] |
| 100 to 500 | Cc1cccc(C)c1CNc1cc(NC(=O)NC(C)C)cn2c(C)c(C)nc12 [Example 31, 1-(8-((2,6-dimethylbenzyl)amino)-2,3-dimethylimidazo[1,2-a]pyridin-6-yl)-3-isopropylurea hydrochloride] |
| 100 to 500 | Cc1cccc(C)c1CNc1cc(NC(=O)N2CC3(CCC3)C2)cn2c(C)c(C)nc12 [Example 66, N-(8-((2,6-dimethylbenzyl)amino)-2,3-dimethylimidazo[1,2-a]pyridin-6-yl)-2-azaspiro[3.3]heptane-2-carboxamide citrate] |
| < 50 | Cc1cc(F)cc(C)c1CNc1cc(NC(=O)NC2CC2)cn2c(C)c(C)nc12 [Example 50, 1-cyclopropyl-3-(8-((4-fluoro-2,6-dimethylbenzyl)amino)-2,3-dimethylimidazo[1,2-a]pyridin-6-yl)urea hydrochloride] |
| 100 to 500 | Cc1cccc(C)c1CNc1cc(NC(=O)[C@H](C)O)cn2c(C)c(C)nc12 [Example 96, (S)-N-(8-((2,6-dimethylbenzyl)amino)-2,3-dimethylimidazo[1,2-a]pyridin-6-yl)-2-hydroxypropanamide citrate] |
| 100 to 500 | CC(=O)OCCNC(=O)Nc1cc(NCc2c(C)cccc2C)c2nc(C)c(C)n2c1 [Example 62, 2-(3-(8-((2,6-dimethylbenzyl)amino)-2,3-dimethylimidazo[1,2-a]pyridin-6-yl)ureido)ethyl acetate hydrochloride] |
| 50 to 100 | Cc1cccc(C)c1CNc1cc(NC(=O)NCC2CCOC2)cn2c(C)c(C)nc12 (stereo not drawn) [Example 74, 1-(8-((2,6-dimethylbenzyl)amino)-2,3-dimethylimidazo[1,2-a]pyridin-6-yl)-3-((tetrohydrofuran-3-yl)methyl)urea hydrochloride] |
| 50 to 100 | Cc1cccc(C)c1CNc1cc(NC(=O)[C@@H](C)O)cn2c(C)c(C)nc12 [Example 97, (R)-N-(8-((2,6-dimethylbenzyl)amino)-2,3-dimethylimidazo[1,2-a]pyridin-6-yl)-2-hydroxypropanamide citrate] |
| 50 to 100 | Cc1cccc(C)c1CNc1cc(NC(=O)[C@H]2CCN2)cn2c(C)c(C)nc12 [Example 36, (R)-N-(8-((2,6-dimethylbenzyl)amino)-2,3-dimethylimidazo[1,2-a]pyridin-6-yl)azetidine-2-carboxamide hydrochloride] |

Same assay, conditions: result in words

| inhibitory activity against proton pump activity | SMILES |
| --- | --- |
| excellent inhibitory properties | Cc1cc(F)cc(C)c1CNc1cc(NC(=O)[C@@H](C)O)cn2c(C)c(C)nc12 [Example 117, (R)-N-(8-((4-fluoro-2,6-dimethylbenzyl)amino)-2,3-dimethylimidazo[1,2-a]pyridin-6-yl)-2-hydroxypropanamide] |

Source: EP4778924A1 (Huons Co., Ltd., priority 2023, dated 2025)
